From ChEMBL document CHEMBL3885881, “DrugMatrix”

Organism: Rattus norvegicus
Assay: DrugMatrix - Regimen: Daily Repeat
Format: toxicity, organism-based, Sprague-Dawley
Parameters: regimen Daily Repeat, gender Male, age 6-8 weeks
Details: in vivo, po, route oral GAVAGE, vehicle 100 % WATER; for ABSOLUTE BASOPHIL / ABSOLUTE EOSINOPHIL / ABSOLUTE LYMPHOCYTE / ABSOLUTE MONOCYTE / ABSOLUTE SEGMENTED NEUTROPHIL / BASOPHIL / EOSINOPHIL / ERYTHROCYTE COUNT / HEMATOCRIT / HEMOGLOBIN / LEUKOCYTE COUNT / LYMPHOCYTE / MEAN CORPUSCULAR HEMOGLOBIN / MEAN CORPUSCULAR HEMOGLOBIN CONCENTRATION / MEAN CORPUSCULAR VOLUME / MONOCYTE / NEUTROPHIL / NUCLEATED RED BLOOD CELLS / PLATELET COUNT: tissue Blood; for ALANINE AMINOTRANSFERASE / ALBUMIN / ALKALINE PHOSPHATASE / ASPARTATE AMINOTRANSFERASE / BLOOD UREA NITROGEN / CARBON DIOXIDE / CHLORIDE / CHOLESTEROL / CREATINE PHOSPHOKINASE / CREATININE / GLUCOSE / LACTATE DEHYDROGENASE / LIPASE / PHOSPHORUS / POTASSIUM / SODIUM / TOTAL BILIRUBIN / TOTAL PROTEIN / URIC ACID: tissue Plasma
[1] = 0 mg/kg, 72 h, dose level Control, time 3 day
[2] = 0 mg/kg, 120 h, dose level Control, time 5 day
[3] = 15 mg/kg, 72 h, dose level Low, time 3 day
[4] = 15 mg/kg, 120 h, dose level Low, time 5 day

## COC(=O)C1=C(C)NC(C)=C(C(=O)OCC(C)C)C1c1ccccc1[N+](=O)[O-] (configuration not stated) [NISOLDIPINE]
[1]
  ABSOLUTE BASOPHIL: 0 CELLS/uL
  ABSOLUTE EOSINOPHIL: 0 CELLS/uL
  ABSOLUTE LYMPHOCYTE: 7802.17 CELLS/uL
  ABSOLUTE MONOCYTE: 13.5 CELLS/uL
  ABSOLUTE SEGMENTED NEUTROPHIL: 617.67 CELLS/uL
  BASOPHIL: 0%
  EOSINOPHIL: 0%
  ERYTHROCYTE COUNT: 5.35 x10E6/uL
  HEMATOCRIT: 33.02%
  HEMOGLOBIN: 12.88 G/DL
  LEUKOCYTE COUNT: 8.43 x10E3/uL
  LYMPHOCYTE: 92.67%
  MEAN CORPUSCULAR HEMOGLOBIN: 24.12 pg
  MEAN CORPUSCULAR HEMOGLOBIN CONCENTRATION: 39.03 G/DL
  MEAN CORPUSCULAR VOLUME: 61.8 fL
  MONOCYTE: 0.17%
  NEUTROPHIL: 7.17%
  NUCLEATED RED BLOOD CELLS: 0 /100WBC
  PLATELET COUNT: 1124.83 x10E3/uL
  ALANINE AMINOTRANSFERASE: 54.17 u/L
  ALBUMIN: 4.07 G/DL
  ALKALINE PHOSPHATASE: 383.83 u/L
  ASPARTATE AMINOTRANSFERASE: 82.17 u/L
  BLOOD UREA NITROGEN: 13.67 mg/dL
  CARBON DIOXIDE: 31 mmol/L
  CHLORIDE: 100.83 MEQ/L
  CHOLESTEROL: 65.17 mg/dL
  CREATINE PHOSPHOKINASE: 228.33 u/L
  CREATININE: 0.12 mg/dL
  GLUCOSE: 148 mg/dL
  LACTATE DEHYDROGENASE: 97.83 u/L
  LIPASE: 9.17 u/L
  PHOSPHORUS: 9.75 mg/dL
  POTASSIUM: 5.85 MEQ/L
  SODIUM: 147.02 MEQ/L
  TOTAL BILIRUBIN: 0.18 mg/dL
  TOTAL PROTEIN: 6.1 G/DL
  URIC ACID: 0.5 mg/dL
[2]
  ABSOLUTE BASOPHIL: 0 CELLS/uL
  ABSOLUTE EOSINOPHIL: 0 CELLS/uL
  ABSOLUTE LYMPHOCYTE: 10538 CELLS/uL
  ABSOLUTE MONOCYTE: 15.83 CELLS/uL
  ABSOLUTE SEGMENTED NEUTROPHIL: 762.83 CELLS/uL
  BASOPHIL: 0%
  EOSINOPHIL: 0%
  ERYTHROCYTE COUNT: 5.49 x10E6/uL
  HEMATOCRIT: 34.63%
  HEMOGLOBIN: 13.72 G/DL
  LEUKOCYTE COUNT: 11.32 x10E3/uL
  LYMPHOCYTE: 92.67%
  MEAN CORPUSCULAR HEMOGLOBIN: 24.97 pg
  MEAN CORPUSCULAR HEMOGLOBIN CONCENTRATION: 39.57 G/DL
  MEAN CORPUSCULAR VOLUME: 63.05 fL
  MONOCYTE: 0.17%
  NEUTROPHIL: 7.17%
  NUCLEATED RED BLOOD CELLS: 0.17 /100WBC
  PLATELET COUNT: 802 x10E3/uL
  ALANINE AMINOTRANSFERASE: 50.5 u/L
  ALBUMIN: 4.07 G/DL
  ALKALINE PHOSPHATASE: 336.83 u/L
  ASPARTATE AMINOTRANSFERASE: 81 u/L
  BLOOD UREA NITROGEN: 14.17 mg/dL
  CARBON DIOXIDE: 32 mmol/L
  CHLORIDE: 98.33 MEQ/L
  CHOLESTEROL: 69.17 mg/dL
  CREATINE PHOSPHOKINASE: 253.33 u/L
  CREATININE: 0.13 mg/dL
  GLUCOSE: 153.67 mg/dL
  LACTATE DEHYDROGENASE: 157 u/L
  LIPASE: 9 u/L
  PHOSPHORUS: 10.78 mg/dL
  POTASSIUM: 6.11 MEQ/L
  SODIUM: 144.57 MEQ/L
  TOTAL BILIRUBIN: 0.15 mg/dL
  TOTAL PROTEIN: 6.05 G/DL
  URIC ACID: 0.73 mg/dL
[3]
  ABSOLUTE BASOPHIL: 0 CELLS/uL
  ABSOLUTE EOSINOPHIL: 0 CELLS/uL
  ABSOLUTE LYMPHOCYTE: 6241.33 CELLS/uL
  ABSOLUTE MONOCYTE: 67 CELLS/uL
  ABSOLUTE SEGMENTED NEUTROPHIL: 425 CELLS/uL
  BASOPHIL: 0%
  EOSINOPHIL: 0%
  ERYTHROCYTE COUNT: 5.19 x10E6/uL
  HEMATOCRIT: 32.73%
  HEMOGLOBIN: 12.7 G/DL
  LEUKOCYTE COUNT: 6.73 x10E3/uL
  LYMPHOCYTE: 92.67%
  MEAN CORPUSCULAR HEMOGLOBIN: 24.5 pg
  MEAN CORPUSCULAR HEMOGLOBIN CONCENTRATION: 38.83 G/DL
  MEAN CORPUSCULAR VOLUME: 63.1 fL
  MONOCYTE: 1%
  NEUTROPHIL: 6.33%
  NUCLEATED RED BLOOD CELLS: 0 /100WBC
  PLATELET COUNT: 1002.33 x10E3/uL
  ALANINE AMINOTRANSFERASE: 56 u/L
  ALBUMIN: 4.03 G/DL
  ALKALINE PHOSPHATASE: 297.33 u/L
  ASPARTATE AMINOTRANSFERASE: 80.67 u/L
  BLOOD UREA NITROGEN: 11.67 mg/dL
  CARBON DIOXIDE: 30.67 mmol/L
  CHLORIDE: 100 MEQ/L
  CHOLESTEROL: 89.67 mg/dL
  CREATINE PHOSPHOKINASE: 318.67 u/L
  CREATININE: 0.11 mg/dL
  GLUCOSE: 147.67 mg/dL
  LACTATE DEHYDROGENASE: 95.33 u/L
  LIPASE: 13 u/L
  PHOSPHORUS: 9.1 mg/dL
  POTASSIUM: 5.7 MEQ/L
  SODIUM: 145.35 MEQ/L
  TOTAL BILIRUBIN: 0.1 mg/dL
  TOTAL PROTEIN: 5.77 G/DL
  URIC ACID: 0.47 mg/dL
[4]
  ABSOLUTE BASOPHIL: 0 CELLS/uL
  ABSOLUTE EOSINOPHIL: 0 CELLS/uL
  ABSOLUTE LYMPHOCYTE: 9912 CELLS/uL
  ABSOLUTE MONOCYTE: 68 CELLS/uL
  ABSOLUTE SEGMENTED NEUTROPHIL: 453.33 CELLS/uL
  BASOPHIL: 0%
  EOSINOPHIL: 0%
  ERYTHROCYTE COUNT: 5.6 x10E6/uL
  HEMATOCRIT: 34.7%
  HEMOGLOBIN: 13.63 G/DL
  LEUKOCYTE COUNT: 10.43 x10E3/uL
  LYMPHOCYTE: 95.33%
  MEAN CORPUSCULAR HEMOGLOBIN: 24.43 pg
  MEAN CORPUSCULAR HEMOGLOBIN CONCENTRATION: 39.3 G/DL
  MEAN CORPUSCULAR VOLUME: 62.07 fL
  MONOCYTE: 0.67%
  NEUTROPHIL: 4%
  NUCLEATED RED BLOOD CELLS: 0 /100WBC
  PLATELET COUNT: 1086 x10E3/uL
  ALANINE AMINOTRANSFERASE: 51 u/L
  ALBUMIN: 4.13 G/DL
  ALKALINE PHOSPHATASE: 346 u/L
  ASPARTATE AMINOTRANSFERASE: 74 u/L
  BLOOD UREA NITROGEN: 13.67 mg/dL
  CARBON DIOXIDE: 36.67 mmol/L
  CHLORIDE: 98.67 MEQ/L
  CHOLESTEROL: 67.33 mg/dL
  CREATINE PHOSPHOKINASE: 223.67 u/L
  CREATININE: 0.13 mg/dL
  GLUCOSE: 139.67 mg/dL
  LACTATE DEHYDROGENASE: 96.33 u/L
  LIPASE: 9 u/L
  PHOSPHORUS: 9.5 mg/dL
  POTASSIUM: 6.07 MEQ/L
  SODIUM: 144.53 MEQ/L
  TOTAL BILIRUBIN: 0.17 mg/dL
  TOTAL PROTEIN: 6.17 G/DL
  URIC ACID: 0.67 mg/dL
